pIC50: −log10 of the molar value.
These molecules were tested on A2780 cells (assay: Deoxy-glucose uptake assay in A2780 cells (14C 2-deoxy-D-glucose transport)). Conditions: Homo sapiens, 20 min; inhibition of 14C 2-deoxy-D-glucose transport into A2780 cells; 20 min compound incubation; read-out: IC50.
Format: cell-based
Description: 1. Deoxy-Glucose Uptake Assay in A2780 Cells:
For measurement of ^14C 2-deoxy-D-glucose transport into A2780 cells, cells were seeded in 96-well plates (Cytostar-T Plates Perkin Elmer, 70,000 cells/180 μl/well) in medium complete (RPMI1640+Glutamax (Life technologies #61870)) and grown for 48 hours. After 48 h, cells were washed once with 180 μL KRB (Krebs Ringer Bicarbonate) buffer, and stimulated in a dose dependent manner by adding 10 μL of test compound dilution 0-1.1 mM (11 times higher concentration than final) or 10 μL of 1.1 mM Cytochalasin B solution as negative control, to 90 μL KRB buffer and incubated for 20 minutes. After compound stimulation, the transport of ^14C 2-deoxy-D-glucose was started by adding of 50 μL 2-^14C[U] 2-deoxy-D-glucose solution (109.1 μM 2-deoxy-D-glucose cold and 33 μM 2-^14C[U] 2-deoxy-D-glucose 0.1 μCi/well) for 20 minutes. Transport was stopped by adding 50 μL/well 96 μM Cytochalasin B solution. Plates were measured in a 96-well Wallac Microbeta device. The cpm (counts per minute) values were used to determine the % inhibition values for the test compounds within each experiment. In a first step, the mean background value generated by Cytochalasin B (a potent glucose transporter inhibitor) treated cells, was subtracted from the mean values of the treated cells. All mean values were obtained from triplicates. For %-Inhibition results, the mean value of the untreated cells (just KRB) was set as 100%. All other mean values were calculated to this relation. IC50 were obtained by regression analysis of dose response curve with 7 or 14 concentrations, respectively, for each compound.

Question: `C=CCO[C@@H]1O[C@H](COC(=O)c2ccc(OCc3ccccc3)c(OC)c2)[C@@H](O)[C@H](O)[C@H]1O` [Example 11] was tested. Which pIC50 did it give?
Answer: The pIC50 was 4.17.

Question: How did the pIC50 turn out when `COc1cc(OCc2ccc(-c3nccs3)cc2)c(Cl)cc1C(=O)O[C@H]1[C@@H](OC)O[C@H](CO)[C@@H](O)[C@@H]1O` [Example 479] was run?
Answer: The pIC50 was > 7.00.

Question: With `CO[C@H]1O[C@H](CO)[C@@H](O)[C@H](O)[C@H]1OC(=O)c1cc(Cl)c(OCc2cccc(CNC(=O)[C@H](CC(C)C)NC(=O)OC(C)(C)C)c2)c(Cl)c1C` [Example 278] as the molecule, how does the pIC50 read?
Answer: Its pIC50 is 5.80.

Question: `COc1cc(OCc2cccc(NC(=O)CCCCCCC(=O)NCCCCCC(=O)OC(C)(C)C)c2)c(Cl)cc1C(=O)N[C@H]1[C@@H](OC)O[C@H](CO)[C@@H](O)[C@@H]1O` [Example 466] was tested. Which pIC50 did it give?
Answer: Its pIC50 is 5.47.

Question: How did the pIC50 turn out when `COc1cc(OCc2sc(C)nc2C(F)(F)F)c(Cl)cc1C(=O)O[C@H]1[C@@H](OC)O[C@H](CO)[C@@H](O)[C@@H]1O` [Example 478] was run?
Answer: The pIC50 was 6.62.

Question: `COc1cc(OCc2cccc(NC(=O)CCCCCCCCC(=O)NCCCCCC(=O)OC(C)(C)C)c2)c(Cl)cc1C(=O)N[C@H]1[C@@H](OC)O[C@H](CO)[C@@H](O)[C@@H]1O` [Example 467] was tested. Which pIC50 did it give?
Answer: Its pIC50 is 4.55.

Question: How did the pIC50 turn out when `CN[C@@H](CC(C)C)C(=O)NCc1cccc(COc2c(Cl)cc(C(=O)O[C@H]3[C@@H](OC)O[C@H](CO)[C@@H](O)[C@@H]3O)c(C)c2Cl)c1` [Example 286] was run?
Answer: The pIC50 was 5.32.

Question: `COC(=O)c1cnc(COc2c(Cl)cc(C(=O)N[C@H]3[C@@H](OC)O[C@H](CO)[C@@H](O)[C@@H]3O)c(C)c2Cl)cn1` [Example 246] was tested. Which pIC50 did it give?
Answer: Its pIC50 is 4.29.

Question: With `CO[C@H]1O[C@H](CO)[C@@H](O)[C@H](O)[C@H]1OC(=O)c1cc(Cl)c(OCc2cccc(CNC(=O)CCCCCCCCC(=O)OC(C)(C)C)c2)c(Cl)c1C` [Example 456] as the molecule, how does the pIC50 read?
Answer: The pIC50 was 4.60.

Question: How did the pIC50 turn out when `COc1cc(OCc2cnc(OC)c(NCC(=O)O)c2)c(Cl)cc1C(=O)N[C@H]1[C@@H](OC)O[C@H](CO)[C@@H](O)[C@@H]1O` [Example 483] was run?
Answer: Its pIC50 is 4.44.

Question: `CO[C@@H]1O[C@H](COC(=O)c2cc(OCc3ccccc3)ccc2C)[C@@H](O)[C@H](O)[C@H]1O` [Example 34] was tested. Which pIC50 did it give?
Answer: Its pIC50 is 4.39.

Question: With `COc1cc(OCc2ccccc2)cc(C(=O)OC[C@H]2O[C@@H](OC)[C@H](O)[C@@H](O)[C@@H]2O)c1` [Example 136] as the molecule, how does the pIC50 read?
Answer: The pIC50 was 4.12.

Question: With `CO[C@H]1O[C@H](CO)[C@@H](O)[C@H](O)[C@H]1NC(=O)c1cc(Cl)c(OCc2cn3c(C)cccc3n2)c(Cl)c1C` [Example 256] as the molecule, how does the pIC50 read?
Answer: Its pIC50 is 5.96.

Question: How did the pIC50 turn out when `COc1ncc(COc2c(Cl)cc(C(=O)N[C@H]3[C@@H](OC)O[C@H](CO)[C@@H](O)[C@@H]3O)c(C)c2Cl)cc1Cl` [Example 210] was run?
Answer: The pIC50 was 6.22.

Question: `CCOC(=O)c1nnsc1COc1c(Cl)cc(C(=O)N[C@H]2[C@@H](OC)O[C@H](CO)[C@@H](O)[C@@H]2O)c(C)c1Cl` [Example 283] was tested. Which pIC50 did it give?
Answer: The pIC50 was 5.17.

Question: With `COc1cc(OCc2cccc(CNC(=O)CCCCCCC(=O)NCCCCCC(=O)OC(C)(C)C)c2)c(Cl)cc1C(=O)N[C@H]1[C@@H](OC)O[C@H](CO)[C@@H](O)[C@@H]1O` [Example 457] as the molecule, how does the pIC50 read?
Answer: The pIC50 was 4.50.

Question: With `CO[C@H]1O[C@H](CO)[C@@H](O)[C@H](O)[C@H]1OC(=O)c1cc(Cl)c(OCCc2ccc(Cl)cc2)c(Cl)c1C` [Example 244] as the molecule, how does the pIC50 read?
Answer: Its pIC50 is 4.65.

Question: How did the pIC50 turn out when `COc1cc(OCc2cccc(CNC(=O)CCCCCCC(=O)O)c2)c(Cl)cc1C(=O)O[C@H]1[C@@H](OC)O[C@H](CO)[C@@H](O)[C@@H]1O` [Example 408] was run?
Answer: Its pIC50 is 4.35.

Question: How did the pIC50 turn out when `COc1ccc(COc2c(Cl)cc(C(=O)O[C@H]3[C@@H](OC)O[C@H](CO)[C@@H](O)[C@@H]3O)cc2OC)cc1` [Example 190] was run?
Answer: Its pIC50 is 4.99.

Question: With `COc1cc(OCc2cccc(CNC(=O)CCC(=O)NCCCCCC(=O)O)c2)c(Cl)cc1C(=O)O[C@H]1[C@@H](OC)O[C@H](CO)[C@@H](O)[C@@H]1O` [Example 405] as the molecule, how does the pIC50 read?
Answer: Its pIC50 is 4.22.

Question: `COc1ncc(COc2c(Cl)c(C)c(C(=O)O[C@H]3[C@@H](OC)O[C@H](CO)[C@@H](O)[C@@H]3O)c(OC)c2Cl)cc1Cl` [Example 126] was tested. Which pIC50 did it give?
Answer: The pIC50 was 5.25.

Question: With `C#CCCC(=O)Nc1cc(COc2c(Cl)cc(C(=O)N[C@H]3[C@@H](OC)O[C@H](CO)[C@@H](O)[C@@H]3O)c(C)c2Cl)cnc1OC` [Example 274] as the molecule, how does the pIC50 read?
Answer: The pIC50 was 4.75.

Question: How did the pIC50 turn out when `COC(=O)[C@H](CCCCNC(=O)CCCCCCC(=O)Nc1cccc(COc2cc(OC)c(C(=O)O[C@H]3[C@@H](OC)O[C@H](CO)[C@@H](O)[C@@H]3O)cc2Cl)c1)NC(=O)OC(C)(C)C` [Example 414] was run?
Answer: Its pIC50 is 6.15.

Question: How did the pIC50 turn out when `COC(=O)[C@H](CCCCNC(=O)CCCC(=O)NCc1cccc(COc2cc(OC)c(C(=O)N[C@H]3[C@@H](OC)O[C@H](CO)[C@@H](O)[C@@H]3O)cc2Cl)c1)NC(=O)OC(C)(C)C` [Example 436] was run?
Answer: The pIC50 was 4.47.

Question: With `C#CCCCCCCCn1c(COc2c(Cl)cc(C(=O)N[C@H]3[C@@H](OC)O[C@H](CO)[C@@H](O)[C@@H]3O)c(C)c2Cl)nc2ccccc21` [Example 368] as the molecule, how does the pIC50 read?
Answer: The pIC50 was 5.96.

Question: With `COc1cc(C(=O)N[C@H]2[C@@H](OC)O[C@H](CO)[C@@H](O)[C@@H]2O)cc(Cl)c1OCc1nc2ccccc2n1C(C)C` [Example 238] as the molecule, how does the pIC50 read?
Answer: Its pIC50 is 4.66.

Question: With `COc1cc(C(=O)OC[C@H]2O[C@@H](OC)[C@H](O)[C@@H](O)[C@@H]2O)cc(Cl)c1OCc1nc2ccccc2n1C(C)C` [Example 151] as the molecule, how does the pIC50 read?
Answer: Its pIC50 is 4.73.

Question: How did the pIC50 turn out when `COC(=O)CCCCCCCn1c(COc2cc(OC)c(C(=O)N[C@H]3[C@@H](OC)O[C@H](CO)[C@@H](O)[C@@H]3O)cc2Cl)nc2ccccc21` [Example 470] was run?
Answer: Its pIC50 is 4.21.

Question: With `CO[C@H]1O[C@H](CO)[C@@H](O)[C@H](O)[C@H]1OC(=O)c1cc(Cl)cc(OCc2ccccc2)c1` [Example 74] as the molecule, how does the pIC50 read?
Answer: The pIC50 was 4.28.

Question: `CO[C@H]1O[C@H](CO)[C@@H](O)[C@H](O)[C@H]1NC(=O)c1cc(Cl)c(OCc2nc3ccccc3n2CCCCCC(=O)OC(C)(C)C)c(Cl)c1C` [Example 301] was tested. Which pIC50 did it give?
Answer: Its pIC50 is 7.00.

Question: `COc1cccc(COc2c(Cl)cc(C(=O)O[C@H]3[C@@H](OC)O[C@H](CO)[C@@H](O)[C@@H]3O)cc2OC)c1` [Example 88] was tested. Which pIC50 did it give?
Answer: Its pIC50 is 4.65.

Question: How did the pIC50 turn out when `CO[C@H]1O[C@H](CO)[C@@H](O)[C@H](O)[C@H]1OC(=O)c1cc(Cl)c(OCc2nccn2Cc2ccccc2)c(Cl)c1` [Example 117] was run?
Answer: The pIC50 was 5.00.

Question: How did the pIC50 turn out when `COc1cc(OCc2ccc(OCC(=O)OC(C)(C)C)cc2)c(Cl)cc1C(=O)O[C@H]1[C@@H](OC)O[C@H](CO)[C@@H](O)[C@@H]1O` [Example 395] was run?
Answer: The pIC50 was 5.82.

Question: With `COc1cc(OCc2ccc(-c3csnn3)cc2)c(Cl)cc1C(=O)O[C@H]1[C@@H](OC)O[C@H](CO)[C@@H](O)[C@@H]1O` [Example 476] as the molecule, how does the pIC50 read?
Answer: Its pIC50 is > 7.00.

Question: `C#CCCCn1c(COc2c(Cl)cc(C(=O)O[C@@H]3[C@@H](O)[C@@H](OC)O[C@H](CO)[C@H]3O)c(C)c2Cl)nc2ccccc21` [Example 275] was tested. Which pIC50 did it give?
Answer: The pIC50 was 7.00.

Question: How did the pIC50 turn out when `CO[C@H]1O[C@H](CO)[C@@H](O)[C@H](O)[C@H]1NC(=O)c1cc(Cl)c(OCc2ccc(C(=O)OC(C)(C)C)cc2)c(Cl)c1C` [Example 296] was run?
Answer: Its pIC50 is 5.12.

Question: With `COC(=O)c1ccc(COc2c(Cl)cc(C(=O)N[C@H]3[C@@H](OC)O[C@H](CO)[C@@H](O)[C@@H]3O)c(C)c2Cl)nc1` [Example 284] as the molecule, how does the pIC50 read?
Answer: Its pIC50 is 4.85.

Question: How did the pIC50 turn out when `CO[C@@H]1O[C@H](CO)[C@@H](O)[C@H](O)[C@H]1NC(=O)c1cc(Cl)c(OCc2ccccc2)c(Cl)c1` [Example 338] was run?
Answer: Its pIC50 is 4.49.

Same assay, conditions: Homo sapiens, A2780, 20 min

Question: How did the pIC50 turn out when `COc1cc(C(=O)OC[C@H]2O[C@@H](OCC[Si](C)(C)C)[C@H](O)[C@@H](O)[C@@H]2O)cc(Cl)c1OCCc1ccccc1` [Example 28] was run?
Answer: The pIC50 was 4.08.

Same assay, conditions: Homo sapiens; inhibition of 14C 2-deoxy-D-glucose transport into A2780 cells at 100 μM; read-out: % inh. at 100 μM

Question: How did the inhibition at 100 µM turn out when `O=C(NC[C@@H]1O[C@H](CO)[C@@H](O)[C@H](O)[C@H]1O)c1ccc(COc2ccccc2)o1` [Example 490] was run?
Answer: The inhibition at 100 µM was 20%.
